# Values of other authors in patent US20040127476A1, “Oral testosterone delivery system with improved sustained release” (priority 2002, published 2004).
# Experiments:
# [1] = oral 200 mg twice daily (two doses)
# [2] = oral 200 mg twice daily, double peak effect
smiles,measurement,setting,value
"C[C@]12CC[C@H]3[C@@H](CCC4=CC(=O)CC[C@@]43C)[C@@H]1CC[C@@H]2O [micronized testosterone, testosterone]",time with total serum testosterone within the normal range,[1],greater than 12 h
same,"time at desired level of serum testosterone, for each peak",[2],about 4 hours
